Key:
Assay in all cases: relative viability (nuclei count vs DMSO), 5 days (fraction); higher = more cells survive
A-427 = system: A-427
In short: (§1)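 Relative viability was taken as the ratio of nuclei in treated wells to nuclei in vehicle wells. Lung cancer cell lines in 1536-well plates received compounds by pin tool one day after seeding, either one drug alone or a fixed anchor-drug dose plus five library-drug doses (not always all listed) in √10 steps. Nuclei were counted on 4× images after 5 days of treatment, and values are medians of duplicate plates.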

COR-L 105 = system: COR-L 105
In short: as §1

ChaGo-K-1 = system: ChaGo-K-1
In short: as §1

EKVX = system: EKVX
In short: as §1

EMC-BAC-2 = system: EMC-BAC-2
In short: as §1

H3255 = system: H3255
In short: as §1

HCC-366 = system: HCC-366
In short: as §1

LOU-NH91 = system: LOU-NH91
In short: as §1

NCI-H1563 = system: NCI-H1563
In short: as §1

NCI-H1666 = system: NCI-H1666
In short: as §1

NCI-H1734 = system: NCI-H1734
In short: as §1

NCI-H1755 = system: NCI-H1755
In short: as §1

NCI-H1975 = system: NCI-H1975
In short: as §1

NCI-H23 = system: NCI-H23
In short: as §1

NCI-H441 = system: NCI-H441
In short: as §1

NCI-H520 = system: NCI-H520
In short: as §1

NCI-H596 = system: NCI-H596
In short: as §1

PC-3 [JPC-3] = system: PC-3 [JPC-3]
In short: as §1

CC(=O)O[C@@]12CO[C@@H]1C[C@H](O)[C@@]1(C)C(=O)[C@H](O)C3=C(C)[C@@H](OC(=O)[C@H](O)[C@@H](NC(=O)OC(C)(C)C)c4ccccc4)C[C@@](O)([C@@H](OC(=O)c4ccccc4)[C@H]21)C3(C)C [Docetaxel] + CC(C)C[C@H](NC(=O)[C@H](Cc1ccccc1)NC(=O)c1cnccn1)B(O)O [Bortezomib] (partner 0.002 µM)
relative viability (A-427; first compound 0.0002 µM): 0.949
relative viability (A-427; first compound 0.000632 µM): 0.964
relative viability (A-427; first compound 0.002 µM): 0.656
relative viability (A-427; first compound 0.006325 µM): 0.275
relative viability (A-427; first compound 0.02 µM): 0.141
relative viability (COR-L 105; first compound 0.0002 µM): 0.734
relative viability (COR-L 105; first compound 0.000632 µM): 0.595
relative viability (COR-L 105; first compound 0.002 µM): 0.423
relative viability (COR-L 105; first compound 0.006325 µM): 0.304
relative viability (COR-L 105; first compound 0.02 µM): 0.229
relative viability (ChaGo-K-1; first compound 0.0002 µM): 1
relative viability (ChaGo-K-1; first compound 0.000632 µM): 0.542
relative viability (ChaGo-K-1; first compound 0.002 µM): 0.487
relative viability (ChaGo-K-1; first compound 0.006325 µM): 0.419
relative viability (ChaGo-K-1; first compound 0.02 µM): 0.267
relative viability (EKVX; first compound 0.0002 µM): 1.05
relative viability (EKVX; first compound 0.000632 µM): 0.718
relative viability (EKVX; first compound 0.002 µM): 0.429
relative viability (EKVX; first compound 0.006325 µM): 0.269
relative viability (EKVX; first compound 0.02 µM): 0.152
relative viability (EMC-BAC-2; first compound 0.0002 µM): 0.963
relative viability (EMC-BAC-2; first compound 0.000632 µM): 0.875
relative viability (EMC-BAC-2; first compound 0.002 µM): 0.573
relative viability (EMC-BAC-2; first compound 0.006325 µM): 0.306
relative viability (EMC-BAC-2; first compound 0.02 µM): 0.206
relative viability (H3255; first compound 0.0002 µM): 0.864
relative viability (H3255; first compound 0.000632 µM): 0.497
relative viability (H3255; first compound 0.002 µM): 0.489
relative viability (H3255; first compound 0.006325 µM): 0.284
relative viability (H3255; first compound 0.02 µM): 0.272
relative viability (HCC-366; first compound 0.0002 µM): 1.07
relative viability (HCC-366; first compound 0.000632 µM): 0.267
relative viability (HCC-366; first compound 0.002 µM): 0.144
relative viability (HCC-366; first compound 0.006325 µM): 0.0171
relative viability (LOU-NH91; first compound 0.0002 µM): 0.483
relative viability (LOU-NH91; first compound 0.000632 µM): 0.46
relative viability (LOU-NH91; first compound 0.002 µM): 0.4
relative viability (LOU-NH91; first compound 0.006325 µM): 0.337
relative viability (LOU-NH91; first compound 0.02 µM): 0.345
relative viability (NCI-H1563; first compound 0.0002 µM): 0.912
relative viability (NCI-H1563; first compound 0.000632 µM): 1.02
relative viability (NCI-H1563; first compound 0.002 µM): 0.989
relative viability (NCI-H1563; first compound 0.006325 µM): 0.741
relative viability (NCI-H1563; first compound 0.02 µM): 0.582
relative viability (NCI-H1666; first compound 0.0002 µM): 0.582
relative viability (NCI-H1666; first compound 0.000632 µM): 0.452
relative viability (NCI-H1666; first compound 0.002 µM): 0.378
relative viability (NCI-H1666; first compound 0.006325 µM): 0.249
relative viability (NCI-H1666; first compound 0.02 µM): 0.205
relative viability (NCI-H1734; first compound 0.0002 µM): 0.865
relative viability (NCI-H1734; first compound 0.000632 µM): 0.577
relative viability (NCI-H1734; first compound 0.002 µM): 0.323
relative viability (NCI-H1734; first compound 0.006325 µM): 0.325
relative viability (NCI-H1734; first compound 0.02 µM): 0.222
relative viability (NCI-H1755; first compound 0.0002 µM): 0.984
relative viability (NCI-H1755; first compound 0.000632 µM): 0.743
relative viability (NCI-H1755; first compound 0.002 µM): 0.45
relative viability (NCI-H1755; first compound 0.006325 µM): 0.368
relative viability (NCI-H1755; first compound 0.02 µM): 0.315
relative viability (NCI-H1975; first compound 0.0002 µM): 0.366
relative viability (NCI-H1975; first compound 0.000632 µM): 0.246
relative viability (NCI-H1975; first compound 0.002 µM): 0.166
relative viability (NCI-H1975; first compound 0.006325 µM): 0.15
relative viability (NCI-H1975; first compound 0.02 µM): 0.141
relative viability (NCI-H23; first compound 0.0002 µM): 1.08
relative viability (NCI-H23; first compound 0.000632 µM): 0.574
relative viability (NCI-H23; first compound 0.002 µM): 0.399
relative viability (NCI-H23; first compound 0.006325 µM): 0.169
relative viability (NCI-H23; first compound 0.02 µM): 0.104
relative viability (NCI-H441; first compound 0.0002 µM): 0.449
relative viability (NCI-H441; first compound 0.000632 µM): 0.276
relative viability (NCI-H441; first compound 0.002 µM): 0.208
relative viability (NCI-H441; first compound 0.006325 µM): 0.188
relative viability (NCI-H441; first compound 0.02 µM): 0.179
relative viability (NCI-H520; first compound 0.0002 µM): 0.45
relative viability (NCI-H520; first compound 0.000632 µM): 0.233
relative viability (NCI-H520; first compound 0.002 µM): 0.251
relative viability (NCI-H520; first compound 0.006325 µM): 0.172
relative viability (NCI-H520; first compound 0.02 µM): 0.108
relative viability (NCI-H596; first compound 0.0002 µM): 0.81
relative viability (NCI-H596; first compound 0.000632 µM): 1.15
relative viability (NCI-H596; first compound 0.002 µM): 0.812
relative viability (NCI-H596; first compound 0.006325 µM): 0.723
relative viability (NCI-H596; first compound 0.02 µM): 0.423
relative viability (PC-3 [JPC-3]; first compound 0.0002 µM): 0.794
relative viability (PC-3 [JPC-3]; first compound 0.000632 µM): 0.959
relative viability (PC-3 [JPC-3]; first compound 0.002 µM): 0.735
relative viability (PC-3 [JPC-3]; first compound 0.006325 µM): 0.263
relative viability (PC-3 [JPC-3]; first compound 0.02 µM): 0.193

From the supplement of paper PMC10307832
